Reference: PMC12057046, “Elucidation of short linear motif-based interactions of the MIT and rhodanese domains of the ubiquitin-specific protease 8” (Biology Direct, 2025)

What follows are substances tested against T1, USP8 Rhod domain (Homo sapiens, UniProt P40818) (assay: Peptide-phage display-based deep mutational scanning (DMS), USP8 Rhod domain). Settings: PSSM, library USP8_DMS, days 2,3; position 7.
T1 construct: USP8 Rhod (174–317) (UniProt: P40818); GST (cleaved yes); made in house; host or cells: Escherichia coli BL21-Gold (DE3)
T1 sequence (P40818 174-317): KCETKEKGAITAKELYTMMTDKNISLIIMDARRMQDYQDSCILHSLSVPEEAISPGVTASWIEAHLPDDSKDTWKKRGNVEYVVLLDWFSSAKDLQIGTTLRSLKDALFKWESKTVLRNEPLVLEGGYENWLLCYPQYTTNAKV
Assay type: binding
Protocol: Four rounds of phage selections were carried out using the second generation human disorderome library or the constructed deep mutational scanning library. At least three individual replicates were used for each bait protein. 10 µg of GST-tagged proteins or GST control (diluted in PBS from the stock of proteins kept in the purification elution buffer) were immobilized in 100 µL PBS on a 96-well MaxiSorp (Nunc) plate overnight at 4 °C. The plates were incubated with blocking buffer (with 0.5% BSA in PBS) for 1 h at 4 °C followed by washing with 0.05% Tween 20 in PBS four times. The naïve phage library (10^11 CFU) was diluted in 1/5th volume PEG/NaCl (20% PEG-8000, 0.4 M NaCl) and 1X PBS, incubated on ice for 10 min and centrifuged at 10,000 [drawing 3] g for 10 min. The pellet was resuspended in the volume of PBS (100 µL/ well). The GST-coated control plate was incubated with 100 µL library per well in PBS for 1 h at 4 °C to remove non-specific binders. The supernatant was transferred to the target wells and incubated for 2 h at 4 °C. The wells were washed five times with 0.05% Tween 20 in PBS and the bound phages were eluted with 100 µL per well log-phase E. coli OmniMAX by incubating at 37° C while shaking. After 30 min, M13KO7 helper phages were added and incubated for an additional 45 min. The bacterial cultures were transferred to 1 mL 2YT supplemented with 100 µg/mL carbenicillin, 30 µg/mL kanamycin and 0.3 mM IPTG and grew overnight at 37 °C while shaking. The following day the cultures were centrifuged for 10 min at 2,000 [drawing 4] g, 4 °C. 1/10th volume of 10 [drawing 5] PBS was added to adjust the pH and heated at 65 °C for 10 min. The phage pools from each round were used as in-phages for the next round of selections.
The samples were prepared for NGS as previously described. […] The PCR products were normalized with 25 µL Mag-bind Total Pure NGS beads (Omega Biotek) and 10 µL of each eluted sample (Qiagen Elution Buffer) was pooled and cleaned-up with a PCR purification kit (Qiagen). The PCR product was confirmed by 2% agarose electrophoresis and the band was extracted with QIAquick Gel extraction Kit (Qiagen) and eluted with 30 µL TE buffer. The dsDNA was quantified using QuantiT PicoGreen dsDNA Assay Kit (Thermo Fisher) and sent for NGS (Illumina MiSeq v3, 1 × 150 bp read setup, 20% PhiX, NGI SciLifeLab facility, Sweden). The NGS data were demultiplexed, adapter regions were trimmed and sequences with an average quality of at least 20 were translated to peptide sequences. The NGS data were analysed using custom Python scripts. The total read NGS counts for each selection experiment of each peptide sequence were compiled and annotated in PepTools (https://slim.icr.ac.uk/tools/peptools/). Since ProP-PD is in essence a competition assay, the possibility of the input phage library influencing the selection outcome was explored. […] Pearson correlation coefficient and p-value were calculated using Python’s SciPy library.

Substance | enrichment_relative_to_wt at position 7 (wt G) | proportion of amino acid at position 7 (wt G)
KIAA1614_Q5VZ46_569_584 G7A (MERVLGALSSPLRLLP; UniProt Q5VZ46 569-584, looked up, variant G7A) | 1.68 | 0.0259
KIAA1614_Q5VZ46_569_584 G7D (MERVLGDLSSPLRLLP; peptide 569-584; UniProt Q5VZ46 569-584, looked up, variant G7D) | 17 | 0.26

Same assay, conditions: ProP-PD DMS, bait USP8_Rhodanese__P40818_174_317; pair wild-type GMERVLGGLSSPLRLL (wt_00013) vs mutant; positive where wild-type fraction is higher, negative where mutant fraction is higher

Substance | hit_pair_ratio
GMERVLGGLSSPFRLL | 65.83
GMERVLGGLSSPGRLL | 32.20
GMERVLGGLSSPHRLL | 80.49
GMERVLGGLSSPKRLL | 321.97
GMERVLGGLSSPLALL | -3.54
GMERVLGGLSSPLELL | 107.32
GMERVLGGLSSPLFLL | 1.48
GMERVLGGLSSPLGLL | 107.32
GMERVLGGLSSPLHLL | 5.88
GMERVLGGLSSPLILL | -3.18
GMERVLGGLSSPLKLL | 5.73
GMERVLGGLSSPLLLL | 2.57
GMERVLGGLSSPLMLL | -10.76
GMERVLGGLSSPLNLL | 38.62
GMERVLGGLSSPLQLL | 59.13
GMERVLGGLSSPLRAL | 160.99
GMERVLGGLSSPLRGL | 160.99
GMERVLGGLSSPLRIL | 321.97
GMERVLGGLSSPLRLA | 131.67

Substance | hit_pair_ratio
GMERVLGGLSSPLRLF | 80.49
GMERVLGGLSSPLRLG | 321.97
GMERVLGGLSSPLRLH | 8.26
GMERVLGGLSSPLRLI | 4.34
GMERVLGGLSSPLRLM | -1.86
GMERVLGGLSSPLRLN | 321.97
GMERVLGGLSSPLRLP | 160.99
GMERVLGGLSSPLRLQ | 26.83
GMERVLGGLSSPLRLT | 131.67
GMERVLGGLSSPLRLV | 40.25
GMERVLGGLSSPLRNL | 160.99
GMERVLGGLSSPLRVL | 160.99
GMERVLGGLSSPLSLL | -1.20
GMERVLGGLSSPLTLL | 1.50
GMERVLGGLSSPLVLL | -21.41
GMERVLGGLSSPLWLL | -1.66
GMERVLGGLSSPLYLL | 5.39
GMERVLGGLSSPMRLL | 7.90
GMERVLGGLSSPNRLL | 321.97

Substance | hit_pair_ratio
GMERVLGGLSSPPRLL | 160.99
GMERVLGGLSSPRRLL | 160.99
GMERVLGGLSSPSRLL | 1.14
GMERVLGGLSSPTRLL | 1.41
GMERVLGGLSSPVRLL | 5.59
GMERVLGGLSSPWRLL | 2.81
GMERVLGGLSSPYRLL | 16.65
GMERVLGGLSSQLRLL | 321.97
GMERVLGGLSSRLRLL | 160.99
GMERVLGGLSSSLRLL | 8.62
GMERVLGGLSSTLRLL | 131.67
GMERVLGGLSTPLRLL | 2.98
GMERVLGGLSVPLRLL | 93.45
GMERVLGGLSYPLRLL | 321.97
GMERVLGGLVSPLRLL | 321.97
GMERVLGGMSSPLRLL | 21.15
GMERVLGGRSSPLRLL | 160.99
GMERVLGGWSSPLRLL | 10.09
GMERVLGGYSSPLRLL | 32.92

Same assay, conditions: ProP-PD pairs, bait USP8_Rhodanese__P40818_174_317; wild-type/mutant pair, wild type KIAA1614 569-584 GMERVLGGLSSPLRLL (wt_00013)

Substance | hit_pair_ratio
GMERVLGGNSSPLRLL | 1.15
GMERVLGGPSSPLRLL | 2.15
GMERVLGGQSSPLRLL | -8.29
GMERVLGGSSSPLRLL | 2.67
GMERVLGGTSSPLRLL | -7.40
GMERVLGGVSSPLRLL | -2.88
GMERVLGNLSSPLRLL | 160.99
GMERVLGTLSSPLRLL | 321.97
GMERVLGVLSSPLRLL | 14.78
GMERVLHGLSSPLRLL | 6.31
GMERVLIGLSSPLRLL | 3.89
GMERVLKGLSSPLRLL | 131.67
GMERVLLGLSSPLRLL | 3.42
GMERVLMGLSSPLRLL | -3.47
GMERVLNGLSSPLRLL | -1.21
GMERVLPGLSSPLRLL | 131.67
GMERVLQGLSSPLRLL | -3.38
GMERVLRGLSSPLRLL | 18.46
GMERVLSGLSSPLRLL | 2.55
GMERVLTGLSSPLRLL | -43.42
GMERVLVGLSSPLRLL | -3.34
GMERVLWGLSSPLRLL | 321.97
GMERVLYGLSSPLRLL | 2.20
GMERVNGGLSSPLRLL | 321.97
GMERVPGGLSSPLRLL | 12.38
GMERVQGGLSSPLRLL | 107.32
GMERVSGGLSSPLRLL | 321.97

Substance | hit_pair_ratio
GMERVTGGLSSPLRLL | 40.25
GMERVVGGLSSPLRLL | 321.97
GMERWLGGLSSPLRLL | -5.43
GMERYLGGLSSPLRLL | -2.09
GMETVLGGLSSPLRLL | 321.97
GMEWVLGGLSSPLRLL | 40.25
GMFRVLGGLSSPLRLL | 321.97
GMHRVLGGLSSPLRLL | 16.95
GMLRVLGGLSSPLRLL | 32.20
GMNRVLGGLSSPLRLL | 2.27
GMPRVLGGLSSPLRLL | 21.46
GMQRVLGGLSSPLRLL | 1.88
GMSRVLGGLSSPLRLL | 9.14
GMTRVLGGLSSPLRLL | 23.00
GMVRVLGGLSSPLRLL | 160.99
GMWRVLGGLSSPLRLL | 15.33
GMYRVLGGLSSPLRLL | 17.24
GNERVLGGLSSPLRLL | -3.41
GPERVLGGLSSPLRLL | -9.75
GQERVLGGLSSPLRLL | -1.16
GRERVLGGLSSPLRLL | 1.40
GSERVLGGLSSPLRLL | -3.84
GTERVLGGLSSPLRLL | -5.86
GVERVLGGLSSPLRLL | -8.18
GWERVLGGLSSPLRLL | 3.37
GYERVLGGLSSPLRLL | 1.08
IMERVLGGLSSPLRLL | 24.34

Same assay, conditions: bait USP8_Rhodanese__P40818_174_317; wild-type/mutant pair ratio of averaged fractions; negative values where mutant fraction is higher

Substance | hit_pair_ratio
HMERVLGGLSSPLRLL | -2.43

Same assay, conditions: wild type/mutant pair; bait USP8_Rhodanese__P40818_174_317; vs hit_library_peptide_wt GLALWEAKMKQLAERA; negative where mutant fraction exceeds wild type; ProP-PD pairs (sheet S7.B)

Substance | hit_pair_ratio
GPALWEAKMKQLAERA | 1107.01
GRALWEAKMKQLAERA | 1107.01
GSALWEAKMKQLAERA | 417.62
GTALWEAKMKQLAERA | 1107.01
GVALWEAKMKQLAERA | -1.59
GWALWEAKMKQLAERA | 11.95
GYALWEAKMKQLAERA | 276.75
